≈ marks a conversion by molar mass, not a printed value. Each block holds one compound with its values, some of them ahead of it.
What was measured:
[1] = Unbound brain-to-plasma concentration ratio in CD rat 1 to 100 mg/kg, po measured after 120 mins by LC/MS/MS analysis; assay type: ADME, organism-based; settings: brain and plasma (unbound), dose 1-100 mg/kg, read-out: K(p,uu,brain)
[2] = Unbound brain-to-plasma concentration ratio in non-human primates administered orally and measured after 120 mins by LC/MS/MS analysis; assay type: ADME; settings: po, read-out: K(p,uu,brain)
[3] = Unbound brain-to-plasma concentration ratio in rat at 2.5 uM incubated for 4 hrs by equilibrium dialysis method; assay type: ADME, cell-free; settings: brain and plasma (unbound), read-out: K(p,uu,brain)
[4] = In vivo inhibition of LRRK2 in CD rat assessed as reduction in phosphorylation at Ser935 residue in striatum at 10 mg/kg, po measured after 2 hrs by MSD assay; assay type: functional
[5] = Toxicity in rat assessed as elevation of AhR gene expression at 10 to 75 mg/kg, po bid administered for 4 days; assay type: organism-based; settings: in vivo, 96 h, dose 10-75 mg/kg, time 4 day
[6] = Total plasma clearance in Rhesus monkey at 0.1 mg/kg, iv by LC-MS/MS analysis; assay type: ADME, organism-based, Macaca mulatta
[7] = biological target: Voltage-gated inwardly rectifying potassium channel KCNH2 (Homo sapiens, UniProt Q12809); assay: Inhibition of human ERG by voltage clamp assay; assay type: toxicity
Chain of Voltage-gated inwardly rectifying potassium channel KCNH2 (Q12809 whole entry): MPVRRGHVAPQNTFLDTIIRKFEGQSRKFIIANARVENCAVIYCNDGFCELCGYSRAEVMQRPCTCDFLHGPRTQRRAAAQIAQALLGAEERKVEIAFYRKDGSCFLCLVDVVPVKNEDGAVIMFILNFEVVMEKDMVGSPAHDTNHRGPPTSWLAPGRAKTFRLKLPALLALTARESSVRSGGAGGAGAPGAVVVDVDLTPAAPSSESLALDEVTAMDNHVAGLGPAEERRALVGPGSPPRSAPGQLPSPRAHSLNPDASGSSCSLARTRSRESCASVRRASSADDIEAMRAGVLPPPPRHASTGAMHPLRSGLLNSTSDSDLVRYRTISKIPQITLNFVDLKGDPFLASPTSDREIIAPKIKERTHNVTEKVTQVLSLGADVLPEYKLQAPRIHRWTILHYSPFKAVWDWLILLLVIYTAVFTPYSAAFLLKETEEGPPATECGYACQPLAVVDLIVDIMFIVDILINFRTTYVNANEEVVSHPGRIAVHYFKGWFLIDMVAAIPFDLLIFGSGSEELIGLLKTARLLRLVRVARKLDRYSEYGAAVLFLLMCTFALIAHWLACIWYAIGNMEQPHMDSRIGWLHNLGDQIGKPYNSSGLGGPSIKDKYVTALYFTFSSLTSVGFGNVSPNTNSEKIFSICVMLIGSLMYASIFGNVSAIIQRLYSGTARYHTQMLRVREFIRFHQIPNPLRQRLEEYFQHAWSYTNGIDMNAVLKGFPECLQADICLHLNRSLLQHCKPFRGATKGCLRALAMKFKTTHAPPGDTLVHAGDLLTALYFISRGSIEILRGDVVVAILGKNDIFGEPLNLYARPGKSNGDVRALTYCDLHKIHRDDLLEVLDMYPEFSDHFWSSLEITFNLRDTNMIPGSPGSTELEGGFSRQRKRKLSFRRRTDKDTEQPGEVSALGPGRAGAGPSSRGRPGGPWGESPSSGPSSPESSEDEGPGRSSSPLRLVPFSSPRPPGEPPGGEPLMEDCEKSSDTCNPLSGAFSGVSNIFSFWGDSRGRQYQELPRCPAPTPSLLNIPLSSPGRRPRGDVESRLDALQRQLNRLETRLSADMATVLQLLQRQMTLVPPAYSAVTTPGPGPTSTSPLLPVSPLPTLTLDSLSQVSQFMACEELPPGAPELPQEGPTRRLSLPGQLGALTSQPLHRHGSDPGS

GSTA5 = assay: Toxicity in rat assessed as fold increase in GSTA5 transcriptional activity in liver at 75 mg/kg, po bid administered for 4 days relative to control; assay type: organism-based; settings: time 4 day, read-out: FC
[8] = Toxicity in rat assessed as elevation of inflammatory response related gene expression at 10 to 75 mg/kg, po bid administered for 4 days; assay type: organism-based; settings: in vivo, 96 h, dose 10-75 mg/kg, time 4 day
[9] = Oral bioavailability in Beagle dog at 0.5 mg/kg by LC-MS/MS analysis; assay type: ADME, organism-based, Canis lupus familiaris; settings: in vivo
[10] = Intrinsic clearance in human hepatocytes at 0.3 uM incubated for 90 mins by LC/MS/MS analysis; assay type: ADME, cell-based, Hepatocyte; settings: read-out: CLH
rat Mdr1a (P-gp) [11] = assay: Efflux ratio of apparent permeability across basolateral to apical side over apical to basolateral side in rat Mdr1a-transfected pig LLC-PK1 cells at 0.1 to 1 uM measured after 3 hrs by LC/MS/MS analysis; assay type: ADME, cell-based, Sus scrofa; settings: dose 0.1-1 µM
mouse Bcrp [12] = assay: Apparent permeability in mouse Bcrp-transfected dog MDCK-II cells at 0.1 to 1 uM measured after 3 hrs by LC/MS/MS analysis; assay type: ADME, cell-based, Canis lupus familiaris; settings: dose 0.1-1 µM
[13] = MRT in Wistar Han rat at 2 mg/kg, iv by LC-MS/MS analysis; assay type: ADME, organism-based; settings: in vivo
[14] = biological target: Leucine-rich repeat serine/threonine-protein kinase 2 (Homo sapiens) (UniProt Q5S007); assay: Ex vivo inhibition of LRRK2 in human PBMC assessed as unbound concentration required for reduction in LRRK2 phosphorylation at Ser935 residue incubated for 90 mins by MSD assay; assay type: cell-based
Chain of Leucine-rich repeat serine/threonine-protein kinase 2 (Homo sapiens) (Q5S007 whole entry): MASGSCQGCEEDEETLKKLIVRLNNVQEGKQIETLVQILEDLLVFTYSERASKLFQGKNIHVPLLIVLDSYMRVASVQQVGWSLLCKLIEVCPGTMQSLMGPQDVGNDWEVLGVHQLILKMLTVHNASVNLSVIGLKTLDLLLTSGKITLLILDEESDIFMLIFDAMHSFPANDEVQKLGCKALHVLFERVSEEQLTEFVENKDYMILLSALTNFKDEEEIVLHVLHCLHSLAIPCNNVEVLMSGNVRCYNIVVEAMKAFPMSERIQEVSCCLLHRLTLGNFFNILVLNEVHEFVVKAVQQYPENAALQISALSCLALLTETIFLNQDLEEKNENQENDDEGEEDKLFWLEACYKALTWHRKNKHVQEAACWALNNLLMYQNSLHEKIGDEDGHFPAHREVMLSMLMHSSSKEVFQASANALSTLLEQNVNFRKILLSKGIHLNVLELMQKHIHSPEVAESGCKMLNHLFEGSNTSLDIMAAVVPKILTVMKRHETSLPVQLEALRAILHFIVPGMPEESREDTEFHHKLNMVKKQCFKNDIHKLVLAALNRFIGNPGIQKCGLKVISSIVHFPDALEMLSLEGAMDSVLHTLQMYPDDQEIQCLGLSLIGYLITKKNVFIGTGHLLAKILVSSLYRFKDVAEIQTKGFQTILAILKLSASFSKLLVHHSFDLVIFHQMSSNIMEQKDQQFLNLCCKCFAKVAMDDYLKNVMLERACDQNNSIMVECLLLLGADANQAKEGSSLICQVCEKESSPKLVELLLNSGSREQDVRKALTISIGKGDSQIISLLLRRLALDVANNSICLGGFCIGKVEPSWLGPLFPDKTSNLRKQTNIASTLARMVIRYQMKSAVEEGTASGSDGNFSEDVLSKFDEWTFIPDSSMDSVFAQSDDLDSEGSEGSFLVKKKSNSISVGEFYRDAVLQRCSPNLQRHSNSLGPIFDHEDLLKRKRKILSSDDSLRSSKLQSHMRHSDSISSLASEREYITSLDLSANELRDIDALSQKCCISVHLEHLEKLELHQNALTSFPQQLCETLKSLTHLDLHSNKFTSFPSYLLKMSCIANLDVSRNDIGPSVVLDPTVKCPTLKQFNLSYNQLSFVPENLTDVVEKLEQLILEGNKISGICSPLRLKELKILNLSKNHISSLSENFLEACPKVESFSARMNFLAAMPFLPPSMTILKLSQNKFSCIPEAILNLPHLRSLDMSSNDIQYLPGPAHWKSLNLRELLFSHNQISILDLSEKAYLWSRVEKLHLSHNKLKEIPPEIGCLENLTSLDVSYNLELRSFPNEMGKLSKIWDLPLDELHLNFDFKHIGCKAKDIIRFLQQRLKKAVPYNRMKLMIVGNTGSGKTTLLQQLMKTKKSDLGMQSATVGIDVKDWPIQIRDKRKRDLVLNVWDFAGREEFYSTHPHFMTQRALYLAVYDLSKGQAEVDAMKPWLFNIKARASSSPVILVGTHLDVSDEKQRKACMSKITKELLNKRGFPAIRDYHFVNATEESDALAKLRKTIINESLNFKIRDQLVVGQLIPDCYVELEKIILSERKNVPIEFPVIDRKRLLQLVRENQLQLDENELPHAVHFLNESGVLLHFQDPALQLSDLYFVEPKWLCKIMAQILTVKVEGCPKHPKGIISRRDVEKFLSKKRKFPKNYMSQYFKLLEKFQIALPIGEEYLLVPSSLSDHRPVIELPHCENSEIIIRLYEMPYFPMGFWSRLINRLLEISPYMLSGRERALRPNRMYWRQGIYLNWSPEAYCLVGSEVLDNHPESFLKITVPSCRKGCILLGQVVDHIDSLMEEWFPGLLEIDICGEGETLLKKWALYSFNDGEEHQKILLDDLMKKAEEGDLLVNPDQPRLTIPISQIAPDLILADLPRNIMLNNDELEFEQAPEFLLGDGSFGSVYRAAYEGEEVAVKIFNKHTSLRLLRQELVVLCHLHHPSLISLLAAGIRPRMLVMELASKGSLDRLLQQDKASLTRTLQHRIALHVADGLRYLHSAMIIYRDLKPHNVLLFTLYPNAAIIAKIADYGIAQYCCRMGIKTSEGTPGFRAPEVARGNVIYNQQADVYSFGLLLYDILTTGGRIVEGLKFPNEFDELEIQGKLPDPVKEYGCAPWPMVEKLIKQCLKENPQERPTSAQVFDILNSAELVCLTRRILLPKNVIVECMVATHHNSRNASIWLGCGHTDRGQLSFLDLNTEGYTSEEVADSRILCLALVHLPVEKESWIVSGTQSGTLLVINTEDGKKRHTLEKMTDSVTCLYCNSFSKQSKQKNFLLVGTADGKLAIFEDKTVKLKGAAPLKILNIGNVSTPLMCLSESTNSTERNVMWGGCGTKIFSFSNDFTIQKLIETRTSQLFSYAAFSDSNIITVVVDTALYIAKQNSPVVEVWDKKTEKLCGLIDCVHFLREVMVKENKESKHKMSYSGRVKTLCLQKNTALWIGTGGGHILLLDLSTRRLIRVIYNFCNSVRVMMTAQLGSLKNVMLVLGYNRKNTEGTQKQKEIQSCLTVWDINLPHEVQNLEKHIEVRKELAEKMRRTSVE

[15] = Total plasma clearance in Beagle dog at 0.25 mg/kg, iv by LC-MS/MS analysis; assay type: ADME, organism-based, Canis lupus familiaris
[16] = Intrinsic clearance in Wistar Han rat at 2 mg/kg, iv by LC-MS/MS analysis; assay type: ADME, organism-based; settings: in vivo
[17] = AUC in rat at 10 to 75 mg/kg, po bid administered for 4 days; assay type: ADME, organism-based; parameters: time 4 day; settings: in vivo, 96 h, dose 10-75 mg/kg
CYP1A1 = assay: Toxicity in rat assessed as fold induction of CYP1A1 transcriptional activity in liver at 10 to 75 mg/kg, po bid administered for 4 days relative to control; assay type: organism-based; settings: dose 10-75 mg/kg, time 4 day, read-out: FC
[18] = Toxicity in rat assessed as drug tolerability at 10 to 75 mg/kg, po bid administered for 4 days; assay type: organism-based; settings: in vivo, 96 h, dose 10-75 mg/kg, time 4 day
mouse Bcrp [19] = assay: Efflux ratio of apparent permeability across basolateral to apical over apical to basolateral side in mouse Bcrp-transfected dog MDCK-II cells at 0.1 to 1 uM measured after 3 hrs by LC/MS/MS analysis; assay type: ADME, cell-based, Canis lupus familiaris; settings: dose 0.1-1 µM
[20] = MRT in Beagle dog at 0.25 mg/kg, iv by LC-MS/MS analysis; assay type: ADME, organism-based, Canis lupus familiaris; settings: in vivo
[21] = Total plasma clearance in Wistar Han rat at 2 mg/kg, iv by LC-MS/MS analysis; assay type: ADME, organism-based
Salmonella typhimurium [22] = assay: Mutagenicity in Salmonella typhimurium TA100 at 30 to 5000 ug incubated for 48 hrs in presence of liver S9 fraction by AMES test; assay type: toxicity, organism-based, Salmonella enterica subsp. enterica serovar Typhimurium; settings: s9, 48 h, dose 30-5000 µg
[23] = Intrinsic clearance in Rhesus monkey at 0.1 mg/kg, iv by LC-MS/MS analysis; assay type: ADME, organism-based, Macaca mulatta; settings: in vivo
[24] = Thermodynamic solubility of the compound in FaSSIF measured after 24 hrs by reverse phase UPLC analysis; assay type: physicochemical; settings: read-out: Therm_solubility
Salmonella typhimurium [25] = assay: Mutagenicity in Salmonella typhimurium TA1535 at 30 to 5000 ug incubated for 48 hrs in presence of liver S9 fraction by AMES test; assay type: toxicity, organism-based, Salmonella enterica subsp. enterica serovar Typhimurium; settings: s9, 48 h, dose 30-5000 µg
[26] = Toxicity in rat assessed as elevation of PXR gene expression at 10 to 75 mg/kg, po bid administered for 4 days; assay type: organism-based; settings: in vivo, 96 h, dose 10-75 mg/kg, time 4 day
[27] = Intrinsic clearance in rat hepatocytes at 0.3 uM incubated for 90 mins by LC/MS/MS analysis; assay type: ADME, cell-based, Hepatocyte; settings: read-out: CLH
[28] = Oral bioavailability in Wistar Han rat at 10 mg/kg by LC-MS/MS analysis; assay type: ADME, organism-based; settings: in vivo
[29] = biological target: MAP/microtubule affinity-regulating kinase 3 (Homo sapiens, UniProt P27448); assay: Inhibition of MARK3 (unknown origin)
Chain of MAP/microtubule affinity-regulating kinase 3 (P27448 whole entry): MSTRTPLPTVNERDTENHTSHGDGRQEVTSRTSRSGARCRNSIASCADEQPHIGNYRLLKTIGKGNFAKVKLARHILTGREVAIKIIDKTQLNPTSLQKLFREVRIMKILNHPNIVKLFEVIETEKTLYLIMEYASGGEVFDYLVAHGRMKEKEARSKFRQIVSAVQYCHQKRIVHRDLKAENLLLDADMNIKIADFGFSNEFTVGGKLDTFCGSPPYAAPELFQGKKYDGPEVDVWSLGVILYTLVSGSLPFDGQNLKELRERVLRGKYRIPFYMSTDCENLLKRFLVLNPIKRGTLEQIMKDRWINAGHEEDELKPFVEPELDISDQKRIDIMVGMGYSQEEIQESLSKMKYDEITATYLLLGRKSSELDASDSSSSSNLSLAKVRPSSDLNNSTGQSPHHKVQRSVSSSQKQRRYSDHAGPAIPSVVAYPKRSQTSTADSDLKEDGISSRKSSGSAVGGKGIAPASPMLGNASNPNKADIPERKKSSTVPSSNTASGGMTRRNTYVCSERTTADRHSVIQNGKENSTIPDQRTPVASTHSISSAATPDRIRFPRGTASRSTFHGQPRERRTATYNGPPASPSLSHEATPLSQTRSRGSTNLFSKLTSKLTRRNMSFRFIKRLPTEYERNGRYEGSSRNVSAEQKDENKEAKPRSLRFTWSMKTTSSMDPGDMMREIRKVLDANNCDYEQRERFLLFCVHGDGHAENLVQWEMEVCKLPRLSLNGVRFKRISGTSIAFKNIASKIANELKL

[30] = biological target: T1, Natriuretic peptides A (Homo sapiens) (UniProt P01160); assay: Agonist activity at ANF (unknown origin) at 10 uM; settings: filed as agonist
T1 sequence (whole entry): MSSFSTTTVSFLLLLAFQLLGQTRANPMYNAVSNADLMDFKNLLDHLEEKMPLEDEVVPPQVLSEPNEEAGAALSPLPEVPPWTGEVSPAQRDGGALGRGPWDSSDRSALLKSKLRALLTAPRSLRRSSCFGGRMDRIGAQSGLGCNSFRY

Salmonella typhimurium [31] = assay: Mutagenicity in Salmonella typhimurium TA98 at 30 to 5000 ug incubated for 48 hrs in presence of liver S9 fraction by AMES test; assay type: toxicity, organism-based, Salmonella enterica subsp. enterica serovar Typhimurium; settings: s9, 48 h, dose 30-5000 µg
[32] = MRT in Rhesus monkey at 0.1 mg/kg, iv by LC-MS/MS analysis; assay type: ADME, organism-based, Macaca mulatta; settings: in vivo
[33] = Intrinsic clearance in dog hepatocytes at 0.3 uM incubated for 90 mins by LC/MS/MS analysis; assay type: ADME, cell-based, Canis lupus familiaris, Hepatocyte; settings: read-out: CLH
rat Mdr1a (P-gp) [34] = assay: Apparent permeability from apical to basolateral side in rat Mdr1a-transfected pig LLC-PK1 cells at 0.1 to 1 uM measured after 3 hrs by LC/MS/MS analysis; assay type: ADME, cell-based, Sus scrofa; settings: dose 0.1-1 µM
UGT1A6 = assay: Toxicity in rat assessed as fold increase in UGT1A6 transcriptional activity in liver at 75 mg/kg, po bid administered for 4 days relative to control; assay type: organism-based; settings: time 4 day, read-out: FC
[35] = Intrinsic clearance in Beagle dog at 0.25 mg/kg, iv by LC-MS/MS analysis; assay type: ADME, organism-based, Canis lupus familiaris; settings: in vivo

Kp uu at 2 h [1]: 0.7
Kp uu at 2 h [2]: 0.37
Kp uu at 4 h, 2.5 µM [3]: 0.49
Structure (SMILES): C[C@@H]1CN(c2cc(-c3n[nH]c4ccc(OC5(C)CC5)cc34)ncn2)C[C@H](C)O1 [MLi-2]
inhibition in vivo at 10 mg/kg [4]: 93%

clearance [6]: 29 mL/min/kg
Kp uu at 4 h, 2.5 µM [3]: 0.43
bioavailability [9]: 65%
CLint scaled at 0.3 µM [10]: 114 mL/min/kg
efflux ratio at 3 h, up to 1 µM (rat Mdr1a (P-gp) [11]): 4.3
Papp at 3 h, up to 1 µM (mouse Bcrp [12]): 30 ×10⁻⁶ cm/s
MRT [13]: 3.7 h
fIC50 [14]: 2.6 nM
clearance [15]: 15 mL/min/kg
CL [16]: 480 mL/min/kg
AUC [17]: 16 µM·h
efflux ratio at 3 h, up to 1 µM (mouse Bcrp [19]): 4.1
MRT [20]: 16 h
clearance [21]: 28 mL/min/kg
CL [23]: 486 mL/min/kg
solubility thermodynamic at 24 h [24]: 30 µg/mL (≈ 59.4 µM)
CLint scaled at 0.3 µM [27]: 464 mL/min/kg
bioavailability [28]: 64%
IC50 [29]: 5.7 µM
Activity [30]: 60%
MRT [32]: 4.8 h
CLint scaled at 0.3 µM [33]: 160 mL/min/kg
Papp A→B at 3 h, up to 1 µM (rat Mdr1a (P-gp) [34]): 31 ×10⁻⁶ cm/s
CL [35]: 205 mL/min/kg
Structure (SMILES): Cc1c(Nc2ncc3cc(Cl)c(C4CCN([C@@H]5COC[C@@H]5O)CC4)cc3n2)cnn1[C@@H]1CC1(F)F
Activity [5]: Non-Toxic
IC50 [7]: 6.2 µM
fold induction at 96 h (GSTA5): 5
Activity [8]: Non-Toxic
fold induction at 96 h (CYP1A1): 3
Activity [18]: Non-Toxic
Activity (Salmonella typhimurium [22]): Non-Toxic
Activity (Salmonella typhimurium [25]): Non-Toxic
Activity [26]: Non-Toxic
Activity (Salmonella typhimurium [31]): Non-Toxic
fold induction at 96 h (UGT1A6): 2.5

Source: ChEMBL document CHEMBL5042510, “Structure-Guided Discovery of Aminoquinazolines as Brain-Penetrant and Selective LRRK2 Inhibitors” (J Med Chem, 2022)
